Experiment [1] concerns Mouse monocyte/macrophage cell line, RAW 264.7. In words: Cholesterol efflux assay (3H-cholesterol, macrophage cell line). Format: cell-based. To be noted: RAW 264.7, 4 hrs incubation, 0.1% human serum albumin; for 4 h Cholesterol Efflux Emax: ABCA1-mediated efflux.
Experiment [2] addresses human GLP-1 receptor (Homo sapiens, UniProt P43220). Description: Functional GLP-1 receptor assay, in vitro potency (CRE luciferase; whole cells). Format: cell-based.
The mark [3] stands for this setting: GLP1R CRE luc 1% HSA EC50 Mean Value, BHK cells expressing human GLP-1 receptor, 1% HSA.
Where [4] appears, read: BHK cells expressing human GLP-1 receptor, 0% HSA, read-out: GLP1R CRE luc 0% HSA EC50 Mean Value.

The values below come from US20150344540A1, “NOVEL GLP-1 RECEPTOR AGONISTS WITH CHOLESTEROL EFFLUX ACTIVITY” (NOVO NORDISK A/S, priority 2012, published 2015).

Read-outs that look alike come from different tables or passages of the source. Where a SMILES comes first, the peptide text is derived from it. [ ]: non-standard residue; d: D form. Aib = CC(C)(N)C(=O)O

Sequence of human GLP-1 receptor (P43220 24-463): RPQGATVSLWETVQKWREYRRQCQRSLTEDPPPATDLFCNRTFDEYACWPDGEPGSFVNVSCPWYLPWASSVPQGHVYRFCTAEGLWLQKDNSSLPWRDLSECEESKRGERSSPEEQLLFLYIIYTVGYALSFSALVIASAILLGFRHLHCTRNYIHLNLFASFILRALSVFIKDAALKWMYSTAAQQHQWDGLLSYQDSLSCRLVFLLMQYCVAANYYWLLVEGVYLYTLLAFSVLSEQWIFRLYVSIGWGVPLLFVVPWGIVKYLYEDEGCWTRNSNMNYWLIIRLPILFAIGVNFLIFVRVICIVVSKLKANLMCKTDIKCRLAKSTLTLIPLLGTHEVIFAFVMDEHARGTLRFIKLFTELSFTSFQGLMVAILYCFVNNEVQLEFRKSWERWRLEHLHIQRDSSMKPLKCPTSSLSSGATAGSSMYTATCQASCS

As usually defined, the EC50 is the concentration at which the effect is half-maximal. As to `CC[C@H](C)[C@H](NC(=O)[C@H](Cc1ccccc1)NC(=O)[C@H](CCC(=O)O)NC(=O)[C@H](CCCCN)NC(=O)[C@@H](NC(=O)[C@H](C)NC(=O)[C@H](CCC(=O)O)NC(=O)CNC(=O)[C@H](CCC(=O)O)NC(=O)[C@H](CC(C)C)NC(=O)[C@H](Cc1ccc(O)cc1)NC(=O)[C@H](CO)NC(=O)[C@H](CO)NC(=O)[C@@H](NC(=O)[C@H](CC(=O)O)NC(=O)[C@H](CO)NC(=O)[C@@H](NC(=O)[C@H](CC(C)C)NC(=O)[C@@H](NC(=O)CNC(=O)[C@H](CC(=O)O)NC(=O)[C@H](C)NC(=O)[C@@H](N)Cc1c[nH]cn1)[C@@H](C)O)[C@@H](C)O)[C@@H](C)CC)C(C)C)C(=O)N[C@@H](C)C(=O)N[C@@H](Cc1c[nH]c2ccccc12)C(=O)N[C@@H](CC(C)C)C(=O)N[C@H](C(=O)N[C@@H](CCC(=O)O)C(=O)N[C@@H](CCCCN)C(=O)NC(C)(C)C(=O)N[C@@H](CCCCN)C(=O)N[C@@H](CCC(=O)O)C(=O)N[C@@H](Cc1ccccc1)C(=O)N[C@@H](CC(C)C)C(N)=O)C(C)C` [Compound 14, [Asp9,Leu12,Ile16,Glu23,Val25,Glu34,Lys35,Aib36,Lys37]-GLP-1-(7-37)-peptidyl-Glu-Phe-Leu amide] (H-HADGTLTSDISSYLEGEAVKEFIAWLVEK[Aib]KEFL-NH2; N-terminus assumed), the EC50 amounted to 300 nM in experiment [1] (read-out: 4 h Cholesterol Efflux EC50, ABCA1-mediated efflux (CPT-cAMP induced minus non-induced)) and 0.062 nM in experiment [2] (GLP1R CRE luc 1% HSA EC50 Mean Value).
Consider `CC[C@H](C)[C@H](NC(=O)[C@H](Cc1ccccc1)NC(=O)[C@H](CCC(=O)O)NC(=O)[C@H](CCCNC(=N)N)NC(=O)[C@@H](NC(=O)[C@H](C)NC(=O)[C@H](CCC(=O)O)NC(=O)[C@H](CCC(=O)O)NC(=O)[C@H](CCC(=O)O)NC(=O)[C@H](CCSC)NC(=O)[C@H](CCC(N)=O)NC(=O)[C@H](CCCCN)NC(=O)[C@H](CO)NC(=O)[C@H](CC(C)C)NC(=O)[C@H](CC(=O)O)NC(=O)[C@H](CO)NC(=O)[C@@H](NC(=O)[C@H](Cc1ccccc1)NC(=O)[C@@H](NC(=O)CNC(=O)[C@H](CCC(=O)O)NC(=O)C(C)(C)NC(=O)[C@@H](N)Cc1c[nH]cn1)[C@@H](C)O)[C@@H](C)O)C(C)C)C(=O)N[C@@H](CCC(=O)O)C(=O)N[C@@H](Cc1c[nH]c2ccccc12)C(=O)N[C@@H](CC(C)C)C(=O)N[C@@H](CCCCN)C(=O)N[C@@H](CC(N)=O)C(=O)NCC(=O)NC(C)(C)C(=O)N[C@@H](CC(C)C)C(=O)N[C@@H](CCC(=O)O)C(=O)N[C@@H](Cc1ccccc1)C(=O)N[C@@H](CC(C)C)C(=O)N[C@@H](CCC(=O)O)C(=O)N[C@@H](CC(C)C)C(=O)N[C@@H](CC(C)C)C(N)=O` [Compound 34, [Aib2,Glu21,Aib30,Leu31,Glu32,Phe33,Leu34,Glu35,Leu36,Leu371-Exendin-4-(1-37)-peptide amide] (H-H[Aib]EGTFTSDLSKQMEEEAVREFIEWLKNG[Aib]LEFLELL-NH2; N-terminus assumed), for which, in experiment [1], the “4 h Cholesterol Efflux Emax” value worked out at 94%. This compound displayed an EC50 in experiment [2] (setting [3]) of 0.032 nM.
As for `CC[C@H](C)[C@H](NC(=O)[C@H](Cc1ccccc1)NC(=O)[C@H](CCC(=O)O)NC(=O)[C@H](CCCCN)NC(=O)[C@@H](NC(=O)[C@H](C)NC(=O)[C@H](CCC(=O)O)NC(=O)CNC(=O)[C@H](CCC(=O)O)NC(=O)[C@H](CC(C)C)NC(=O)[C@H](Cc1ccc(O)cc1)NC(=O)[C@H](CO)NC(=O)[C@H](CO)NC(=O)[C@@H](NC(=O)[C@H](CC(=O)O)NC(=O)[C@H](CO)NC(=O)[C@@H](NC(=O)[C@H](Cc1ccccc1)NC(=O)[C@@H](NC(=O)CNC(=O)[C@H](CCC(=O)O)NC(=O)C(C)(C)NC(=O)[C@@H](N)Cc1c[nH]cn1)[C@@H](C)O)[C@@H](C)O)C(C)C)C(C)C)C(=O)N[C@@H](C)C(=O)N[C@@H](Cc1c[nH]c2ccccc12)C(=O)N[C@@H](CC(C)C)C(=O)N[C@H](C(=O)N[C@@H](CCC(=O)O)C(=O)N[C@@H](CCCCN)C(=O)N[C@H](C(=O)N[C@@H](CCCCN)C(=O)N[C@@H](CCC(=O)O)C(=O)NCC(=O)N[C@@H](CC(C)C)C(N)=O)C(C)C)C(C)C` [Compound 117, [Aib8,Glu23,Val25,Glu34,Lys35,Val36,Lys37]-GLP-1-(7-37)-peptidyl-Glu-Gly-Leu amide] (H-H[Aib]EGTFTSDVSSYLEGEAVKEFIAWLVEKVKEGL-NH2), the “4 h Cholesterol Efflux Emax” value in experiment [1] was determined as 114%. Further, the EC50 in experiment [2] (setting [4]) is 0.011 nM.
With “H-HAEGTFTSDVSSYLEGQAAKEFIAWLVEKVKEFLEK-OH [Compound 124, [Glu34,Lys35,Val36,Lys37]-GLP-1-(7-37)-peptidyl-Glu-Phe-Leu-Glu-Lys]”, in experiment [1], the “4 h Cholesterol Efflux Emax” value worked out at 146%. In addition, the EC50 in experiment [2] (setting [4]) stood at 0.03 nM; in experiment [2] (setting [3]), 0.011 nM.
Consider `CC[C@H](C)[C@H](NC(=O)[C@H](Cc1ccccc1)NC(=O)[C@H](CCC(=O)O)NC(=O)[C@H](CCCCN)NC(=O)[C@@H](NC(=O)[C@H](C)NC(=O)[C@H](CCC(=O)O)NC(=O)CNC(=O)[C@H](CCC(=O)O)NC(=O)[C@H](CC(C)C)NC(=O)[C@H](Cc1ccc(O)cc1)NC(=O)[C@H](CO)NC(=O)[C@H](CO)NC(=O)[C@@H](NC(=O)[C@H](CC(=O)O)NC(=O)[C@H](CO)NC(=O)[C@@H](NC(=O)[C@H](Cc1ccccc1)NC(=O)[C@@H](NC(=O)CNC(=O)[C@H](CCC(=O)O)NC(=O)C(C)(C)NC(=O)[C@@H](N)Cc1c[nH]cn1)[C@@H](C)O)[C@@H](C)O)C(C)C)C(C)C)C(=O)N[C@@H](C)C(=O)N[C@@H](Cc1c[nH]c2ccccc12)C(=O)N[C@@H](CC(C)C)C(=O)N[C@H](C(=O)N[C@@H](CCC(=O)O)C(=O)N[C@@H](CCCCN)C(=O)N[C@H](C(=O)N[C@@H](CCCCN)C(=O)N[C@@H](CCC(=O)O)C(=O)N[C@@H](CCCCN)C(N)=O)C(C)C)C(C)C` [Compound 110, [Aib8,Glu23,Val25,Glu34,Lys35,Val36,Lys37]-GLP-1-(7-37)-peptidyl-Glu-Lvs amide] (H-H[Aib]EGTFTSDVSSYLEGEAVKEFIAWLVEKVKEK-NH2), for which the “4 h Cholesterol Efflux Emax” value in experiment [1] worked out at 106%. Moreover, the EC50 in experiment [2] (setting [4]) was determined as 0.043 nM; in experiment [2] (setting [3]), 0.014 nM.
Consider `CC(C)C[C@H](NC(=O)[C@H](Cc1ccccc1)NC(=O)[C@H](CCC(=O)O)NC(=O)[C@H](CCCCN)NC(=O)C(C)(C)NC(=O)[C@H](CCCCN)NC(=O)[C@H](CCC(=O)O)NC(=O)[C@H](CC(C)C)NC(=O)[C@H](CC(C)C)NC(=O)[C@H](Cc1c[nH]c2ccccc12)NC(=O)[C@H](CCC(N)=O)NC(=O)[C@@H](NC(=O)[C@H](Cc1ccccc1)NC(=O)[C@H](CCC(=O)O)NC(=O)[C@H](CCCNC(=N)N)NC(=O)[C@@H](NC(=O)[C@H](C)NC(=O)[C@H](CCC(=O)O)NC(=O)CNC(=O)[C@H](CCC(=O)O)NC(=O)[C@H](CC(C)C)NC(=O)[C@H](Cc1ccc(O)cc1)NC(=O)[C@H](CO)NC(=O)[C@H](CO)NC(=O)[C@@H](NC(=O)[C@H](CC(=O)O)NC(=O)[C@H](CO)NC(=O)[C@@H](NC(=O)[C@H](Cc1ccccc1)NC(=O)[C@@H](NC(=O)CNC(=O)[C@H](CCC(=O)O)NC(=O)C(C)(C)NC(=O)[C@@H](N)Cc1c[nH]cn1)[C@@H](C)O)[C@@H](C)O)C(C)C)C(C)C)C(C)C)C(N)=O` [Compound 80, [Aib8,Glu23,Val25,Arq26,Val29,Gln30,Leu33,Glu34,Lys35,Aib36,Lys37]-GLP-1-(7-37)-peptidyl-Glu-Phe-Leu amide] (H-H[Aib]EGTFTSDVSSYLEGEAVREFVQWLLEK[Aib]KEFL-NH2), for which, in experiment [1], the “4 h Cholesterol Efflux Emax” value came to 108%. Besides, the EC50 in experiment [2] (setting [3]) was 0.029 nM.
For `CC[C@H](C)[C@H](NC(=O)[C@H](Cc1ccccc1)NC(=O)[C@H](CCC(=O)O)NC(=O)[C@H](CCC(N)=O)NC(=O)[C@@H](NC(=O)[C@H](C)NC(=O)[C@H](CCC(=O)O)NC(=O)CNC(=O)[C@H](CCC(=O)O)NC(=O)[C@H](CC(C)C)NC(=O)[C@H](Cc1ccc(O)cc1)NC(=O)[C@H](CO)NC(=O)[C@H](CO)NC(=O)[C@@H](NC(=O)[C@H](CC(=O)O)NC(=O)[C@H](CO)NC(=O)[C@@H](NC(=O)[C@H](Cc1ccccc1)NC(=O)[C@@H](NC(=O)CNC(=O)[C@H](CCC(=O)O)NC(=O)C(C)(C)NC(=O)[C@@H](N)Cc1c[nH]cn1)[C@@H](C)O)[C@@H](C)O)C(C)C)C(C)C)C(=O)N[C@@H](C)C(=O)N[C@@H](Cc1c[nH]c2ccccc12)C(=O)N[C@@H](CC(C)C)C(=O)N[C@H](C(=O)N[C@@H](CCC(=O)O)C(=O)N[C@@H](CCC(N)=O)C(=O)NC(C)(C)C(=O)N[C@@H](CCC(N)=O)C(=O)N[C@@H](CCC(=O)O)C(=O)N[C@@H](Cc1ccccc1)C(=O)N[C@@H](CC(C)C)C(N)=O)C(C)C` [Compound 95] (H-H[Aib]EGTFTSDVSSYLEGEAVQEFIAWLVEQ[Aib]QEFL-NH2) the same measures were 59% and 0.04 nM.
On to `CC[C@H](C)[C@H](NC(=O)[C@H](Cc1ccccc1)NC(=O)[C@H](CCC(=O)O)NC(=O)[C@H](CCCCN)NC(=O)[C@@H](NC(=O)[C@H](C)NC(=O)[C@H](CCC(=O)O)NC(=O)CNC(=O)[C@H](CCC(=O)O)NC(=O)[C@H](CC(C)C)NC(=O)[C@H](Cc1ccc(O)cc1)NC(=O)[C@H](CO)NC(=O)[C@H](CO)NC(=O)[C@@H](NC(=O)[C@H](CC(=O)O)NC(=O)[C@H](CO)NC(=O)[C@@H](NC(=O)[C@H](Cc1ccccc1)NC(=O)[C@@H](NC(=O)CNC(=O)[C@H](CCC(=O)O)NC(=O)C(C)(C)NC(=O)[C@@H](N)Cc1c[nH]cn1)[C@@H](C)O)[C@@H](C)O)C(C)C)C(C)C)C(=O)N[C@@H](Cc1c[nH]c2ccccc12)C(=O)N[C@@H](Cc1c[nH]c2ccccc12)C(=O)N[C@@H](CC(C)C)C(=O)N[C@H](C(=O)N[C@@H](CCC(=O)O)C(=O)N[C@@H](CCCCN)C(=O)NC(C)(C)C(=O)N[C@@H](CCCCN)C(=O)N[C@@H](CCC(=O)O)C(=O)N[C@@H](Cc1ccccc1)C(=O)N[C@@H](CC(C)C)C(N)=O)C(C)C` [Compound 50, [Aib8,Glu23,Val25,Trp30,Glu34,Lys35,Aib36,Lys37]-GLP-1-(7-37)-peptidyl-Glu-Phe-Leu amide] (H-H[Aib]EGTFTSDVSSYLEGEAVKEFIWWLVEK[Aib]KEFL-NH2), for which, in experiment [1], the “4 h Cholesterol Efflux Emax” value is recorded as 87%. In addition, the EC50 in experiment [2] (setting [4]) was determined as 0.157 nM.
